Biological target: T1, COX-2 (Homo sapiens, UniProt P35354)
T1 construct: purchased Cayman Chemical
T1 sequence (P35354 18-604): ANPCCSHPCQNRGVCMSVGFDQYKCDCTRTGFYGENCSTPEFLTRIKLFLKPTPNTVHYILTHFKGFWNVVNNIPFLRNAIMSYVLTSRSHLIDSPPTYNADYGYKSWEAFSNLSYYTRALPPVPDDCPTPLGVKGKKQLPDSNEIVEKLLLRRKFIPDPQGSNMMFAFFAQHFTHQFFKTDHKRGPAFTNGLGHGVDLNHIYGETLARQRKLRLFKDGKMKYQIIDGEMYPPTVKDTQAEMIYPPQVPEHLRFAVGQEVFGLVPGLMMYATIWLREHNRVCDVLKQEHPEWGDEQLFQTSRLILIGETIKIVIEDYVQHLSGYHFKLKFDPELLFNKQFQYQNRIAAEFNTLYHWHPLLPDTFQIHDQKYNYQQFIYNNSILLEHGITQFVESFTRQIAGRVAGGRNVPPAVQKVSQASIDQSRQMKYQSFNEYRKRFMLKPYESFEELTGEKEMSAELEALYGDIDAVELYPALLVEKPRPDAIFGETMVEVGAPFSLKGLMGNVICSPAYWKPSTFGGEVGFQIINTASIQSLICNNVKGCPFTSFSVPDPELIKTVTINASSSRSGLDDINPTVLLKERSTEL
Assay: Inhibition of COX: arachidonic acid metabolism
Assay type: biochemical
Conditions: 25 nmoles compound with 25 nmoles AA, 250 μL, 2 min
Protocol: All compound solutions were made to a concentration of 10 mM in DMSO. Three tests were performed on each compound: hydrolysis, to determine the stability of the compound in assay conditions without the enzyme present; metabolism, to determine the stability of the compound with the enzyme present; and inhibition of arachidonic acid (AA) metabolism.
To test the stability of the compounds in enzyme assay conditions, 25 nmoles of the compound were incubated with 12.5 μl 100 uM hematin in assay buffer (0.1M PH8.0 Tris-HCl, 2 mM phenol, 5 mM EDTA, 0.1% BSA, final volume of 250 μL) for 2 minutes at 25° C. Samples (100 μL) were taken at the start of the assay and after 2 minutes, diluted 1:5 with acetonitrile and centrifuged (20,000 RCF, five minutes, room temperature) to precipitate the proteins. The resulting supernatant was injected onto the HPLC. Calculations for determining the percent compound remaining are described in the following equation: % R=Peak Area(T2)/Peak Area(T0) To determine whether or not the compounds were good substrates for COX enzyme, 25 nmoles of the compound were incubated with 12.5 μl COX enzyme (purchased form Cayman Chemical) and 5 uM hematin in assay buffer (final volume 250 μL). The reaction mixture was treated in the same manner as described above. Concentrations of AA were calculated using external standards. […] Again the reaction mixture was treated in the same manner as described above and the concentrations of AA were calculated using external standards. Percent inhibition was calculated using the following equation: % Inhib.=(AA0-AA2)i/(AA0-AA2)s where (AA0-AA2)i is the amount of arachidonic acid metabolized over 2 minutes with the inhibitor present and (AA0-AA2)s is the amount of arachidonic acid metabolized over 2 minutes when the inhibitor is not present. […] The reaction mixtures were treated as described above and the amount of AA metabolized was calculated. The software package GraphPad Prism was utilized to calculate IC50 and Ki. HPLC Conditions:
Chromatographic separation was achieved using an Ultrasphere ODS Pre-column (4.6×45 mm) from Beckman. Hardware consisted of a Waters Millennium HPLC system with a 20 μL injection loop. The mobile phase consisted of 8.5% o-phosphoric acid:acetonitrile (3:7), run isocratically at a rate of 1 mL/min and detection at 204 nm. The total run time was 8 minutes with AA at 6.0 minutes.

Going from `O=C(CCC/C=C\C/C=C\C/C=C\C/C=C\CCCCc1ccccc1)NCC1CC1` [Compound A1] to `O=C(CCC/C=C\C/C=C\C/C=C\C/C=C\CCc1ccccc1)Nc1ccc(O)cc1` [Compound A3], the “COX-2 % Inhibition” value falls from 78.4% to 77.4%.

Going from `COc1cc(CNC(=O)CCC/C=C\C/C=C\C/C=C\C/C=C\CCCCN=[N+]=[N-])ccc1O` [Compound A7] to `COc1cc(CNC(=O)CCC/C=C\C/C=C\C/C=C\C/C=C\CCCCN=C=S)ccc1O` [Compound A12], the “COX-2 % Inhibition” value rises from 42.4% to 46.2%.
